We go through nine compounds from patent US20040138301A1, “Chemical uncouplers for the treatment of obesity” (priority 2002, published 2004).

The series deals with HEP-G2 cells. Nature of the series: cells. The following applies: for EC50 / Emax / EC (Emax): Homo sapiens; for EC50: HepG2, 3 h, read-out: HEP-G2 EC50, HEP-G2 cells, glucose utilisation, 3 hours incubation; for Emax: HepG2, read-out: HEP-G2 Emax (% of FCCP), HEP-G2 cells, maximal stimulation relative to FCCP; for EC (Emax): HepG2, read-out: HEP-G2 Emax (μM), HEP-G2 cells, concentration at which Emax is achieved (CEmax). The essentials: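 HEP-G2 cells were treated with compound for 3 h at 37 °C in MEM/0.5% BSA containing 10 μCi/ml D-(3-^3H(N))-glucose, then lysed with TCA; ^3H-water released via the respiratory chain was recovered by evaporation at 50 °C and counted. Values are corrected for non-specific and basal counts, expressed as % of maximal FCCP or DNP stimulation, and EC50 is from a variable-slope sigmoidal fit.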

For `N#CC(C#N)=NNc1ccc(OC(F)(F)F)cc1` [Example 27, Carbonylcyanide p-Trifluoromethoxy-Phenylhydrazone, reference compound], the EC50 was determined as 3 µM, the Emax came to 100% and the EC (Emax) is 30 µM.
For `N#CC(C#N)=Cc1c[nH]c2ccc(Cl)cc12` [Example 30, 2-((5-Chloro-1H-Indol-3-Yl)Methylene)Malononitrile], in that order: 19.5 µM, 60% and 100 µM.
As for `N#CC(C#N)=Cc1c(Cl)[nH]c2ccccc12` [Example 34, 2-(2-Chloro-1H-Indol-3-Ylmethylene)-Malononitrile], the EC50 turned out to be 1.4 µM, the Emax was 80% and the EC (Emax) worked out at 10 µM.
As to `Cc1c(Br)cc(C(C)(C)C)c(O)c1C(=O)Nc1ccc([N+](=O)[O-])cc1Cl` [Example 37, 3-Bromo-5-Tert-Butyl-N-(2-Chloro-4-Nitro-Phenyl)-6-Hydroxy-2-Methyl-Benzamide], the EC50 was determined as 0.035 µM, the Emax was 100% and the EC (Emax) was 1 µM.
For `Cc1c(Cl)cc(C(C)(C)C)c(O)c1C(=O)Nc1ccc([N+](=O)[O-])cc1C(F)(F)F` [Example 50, 3-Tert-Butyl-5-Chloro-2-Hydroxy-6-Methyl-N-(4-Nitro-2-Trifluoromethyl-Phenyl)-Benzamide], in that order: 0.03 µM, 82% and 0.1 µM.
The like results for `Cc1cc(C(C#N)c2ccc(Cl)cc2)c(Cl)cc1NC(=O)c1c(C)c(Br)cc(C(C)(C)C)c1O` (stereo not shown) [Example 56, 3-Bromo-5-Tert-Butyl-N-{5-Chloro-4-[(4-Chloro-Phenyl)-Cyano-Methyl]-2-Methyl-Phenyl}-6-Hydroxy-2-Methyl-Benzamide] were, in that order, 6.6 µM, 100% and 100 µM.
Regarding `Cc1c(Br)cc(C(C)(C)C)c(O)c1C(=O)Nc1ccc([N+](=O)[O-])cc1C(F)(F)F` [Example 58, 3-Bromo-5-Tert-Butyl-6-Hydroxy-2-Methyl-N-(4-Nitro-2-Trifluoromethyl-Phenyl)-Benzamide], the EC50 was 0.03 µM, the maximal response (Emax) worked out at 100% and the EC (Emax) turned out to be 0.1 µM.
On to `CC(=C(C#N)C#N)c1cc(C(C)(C)C)c(O)c(C(C)(C)C)c1` [Example 75, 2-[1-(3,5-Di-Tert-Butyl-4-Hydroxy-Phenyl)-Ethylidene]-Malononitrile], for which the EC50 amounted to 0.36 µM, the Emax was determined as 120% and the EC (Emax) worked out at 30 µM. Moreover, for the setting “human, 3 h”, the “HEP-G2 Tox” value was “Tox 0.3 mM”.
For `CC(C)(C)c1cc(/C=C(\C#N)c2ccc([N+](=O)[O-])cc2)cc(C(C)(C)C)c1O` [Example 77, 3-(3,5-Di-Tert-Butyl-4-Hydroxy-Phenyl)-2-(4-Nitro-Phenyl)-Acrylonitrile], the EC50 worked out at 0.31 µM, the Emax was determined as 100% and the EC (Emax) was determined as 3 µM.

As a reminder, the EC50 is the concentration giving half of the maximal effect. In general, Emax refers to the maximal effect, on the per cent scale that the assay sets.
